Data taken from ChEMBL document CHEMBL5226388, “Terpenoids from the Sponge Sarcotragus sp. Collected in the South China Sea” (J Nat Prod, 2023).

Experiments:
K562 = assay: Cytotoxicity against human K562 cells assessed as reduction in cell growth by MTT assay; type: functional, cell-based
MDA-MB-231 = assay: Cytotoxicity against human MDA-MB-231 cells assessed as reduction in cell growth by MTT assay; type: functional, cell-based
H69AR = assay: Cytotoxicity against human NCI-H69AR cells assessed as reduction in cell growth by MTT assay; type: functional, cell-based
[1] = Cytotoxicity against human L02 cells assessed as reduction in cell growth by MTT assay; type: toxicity, cell-based
ASPC1 = assay: Cytotoxicity against human ASPC1 cells assessed as reduction in cell growth by MTT assay; type: functional, cell-based

CC(=O)O[C@@H]1OC(=O)C=C1/C=C/[C@]1(C)C2=CC[C@H]3C(C)(C)CCC[C@]3(C)[C@H]2CC[C@@H]1C
IC50 (K562): 4.38 µM
IC50 (MDA-MB-231): 23.2 µM
IC50 (H69AR): 16.3 µM
IC50 [1]: 7.21 µM

CO[C@H](C[C@]1(C)C2=CC[C@H]3C(C)(C)CCC[C@]3(C)[C@H]2CC[C@@H]1C)C1=CC(=O)O[C@H]1O
IC50 (K562): 7.95 µM
IC50 (ASPC1): 4.71 µM
IC50 (MDA-MB-231): 16 µM
IC50 (H69AR): 5.67 µM
IC50 [1]: 4.62 µM

C[C@H]1CC[C@H]2C(=CC[C@H]3C(C)(C)CCC[C@]23C)[C@@]1(C)/C=C/C1=CC(=O)OC1O (stereo partly drawn)
IC50 (K562): 11.6 µM
IC50 (ASPC1): 22.4 µM
IC50 (MDA-MB-231): > 30 µM
IC50 (H69AR): 25.7 µM
IC50 [1]: 13.5 µM

C[C@@H]1CC[C@@H]2C(=CC[C@@H]3C(C)(C)CCC[C@@]23C)[C@]1(C)C[C@H](O)C1=CC(=O)OC1
IC50 (K562): > 30 µM
IC50 (ASPC1): > 30 µM
IC50 (MDA-MB-231): > 30 µM
IC50 (H69AR): > 30 µM
IC50 [1]: > 30 µM

C=C(C)CCCC1=CCC[C@H](C)[C@]1(C)CCC1=CC(=O)OC1O (stereo partly drawn)
IC50 (K562): 15.1 µM
IC50 (ASPC1): > 30 µM
IC50 (MDA-MB-231): > 30 µM
IC50 (H69AR): 21.1 µM
IC50 [1]: 13.5 µM

CC(=O)O[C@H]1OC(=O)C=C1/C=C/[C@]1(C)C2=CC[C@H]3C(C)(C)CCC[C@]3(C)[C@H]2CC[C@@H]1C
IC50 (K562): 2.91 µM
IC50 (MDA-MB-231): 29 µM
IC50 (H69AR): 14.9 µM
IC50 [1]: 6.8 µM

CC(C)=CCC[C@@]1(C)CCC=C2[C@@H]1CC[C@H](C)[C@]2(C)CCC1=CC(=O)OC1
IC50 (K562): > 30 µM
IC50 (ASPC1): > 30 µM
IC50 (MDA-MB-231): > 30 µM
IC50 (H69AR): > 30 µM
IC50 [1]: > 30 µM

CC1=CCC[C@@H](C)[C@@]1(C)CC/C(C)=C/CCC1=CC(=O)OC1
IC50 (K562): > 30 µM
IC50 (ASPC1): > 30 µM
IC50 (MDA-MB-231): > 30 µM
IC50 (H69AR): > 30 µM
IC50 [1]: > 30 µM

CC(=O)O[C@@H]1C[C@@H]2[C@@]3(C)CCCC(C)(C)[C@@H]3CC[C@@]2(C)[C@@H]2C[C@@H](O)C3=C([C@H](O)OC3=O)[C@@]12C
IC50 (K562): 7.19 µM
IC50 (ASPC1): 17.9 µM
IC50 (MDA-MB-231): > 30 µM
IC50 (H69AR): 27.5 µM
IC50 [1]: 24.1 µM

C[C@@H]1CC[C@@H]2C(=CC[C@H]3C(C)(C)CCC[C@@]23C)[C@]1(C)C[C@@H](O)C1=CC(=O)OC1
IC50 (K562): 12.6 µM
IC50 (ASPC1): > 30 µM
IC50 (MDA-MB-231): > 30 µM
IC50 (H69AR): > 30 µM
IC50 [1]: 11.6 µM

COc1cccc2c1C(=O)c1c(O)c3c(c(O)c1C2=O)C[C@@](O)(C(=O)CO)C[C@@H]3O[C@H]1C[C@H](N)[C@H](O)[C@H](C)O1 [DOXORUBICIN]
IC50 (K562): < 1 µM
IC50 (ASPC1): < 1 µM
IC50 (MDA-MB-231): < 1 µM
IC50 (H69AR): < 1 µM
IC50 [1]: < 1 µM
